These results are taken from patent US7868015B2, “Phosphodiesesterase 4 inhibitors for the treatment of a cognitive deficit” (Cold Spring Harbor Laboratory, priority 2000, dated 2011).

Entries after “also recorded” stand apart in the source; their conditions may differ. A value given as a limit tells only on which side of the number the result lay.

For orientation: half-life means the time needed for the level to fall by half in the phase considered. A lower half-life goes with rapid decline.

Data set [1] deals with CRE-luciferase reporter gene in human neuroblastoma cells. Kind of data set: CRE-luciferase reporter gene assay, forskolin-stimulated human neuroblastoma cells. It is filed as cell-based. As to conditions: for effect on CRE-luciferase expression: FIG. 2, in words; for increase of forskolin-induced CRE-luciferase expression above forskolin alone: drug for two hours before suboptimal dose of forskolin, assayed 4 hours after forskolin stimulation (FIG. 2A). An excerpt:
FIG. 2A is a bar graph representation depicting results showing that the PDE4 inhibitors rolipram and HT0712 enhance forskolin-induced gene expression in human neuroblastoma cells. Relative light units (RLU) emitted from luciferase were quantified in human neuroblastoma cells stably transfected with a CRE-luciferase reporter gene and exposed to vehicle alone or drug (HT0712 or rolipram) for two hours before stimulation by a suboptimal dose of forskolin.
A high-throughput drug screen was accomplished using human neuroblastoma cells, which were stably transfected with a luciferase reporter gene driven by a CRE (cAMP response element) promoter (a drug screen for enhancers of CREB function) (Scott, R. et al., J. Mol. Neurosci., 19:171-177 (2002)). Cells were exposed to drug for two hours and then stimulated with a suboptimal dose of forskolin for another four hours. […] Among the dozens of confirmed hits for several molecular targets identified from this screen, inhibitors of PDE4 were numerous.
Background: In a reporter assay the amount or activity of a reporter protein is the signal.

The subject of data set [2] is somatostatin, an endogenous cAMP-responsive gene, in human neuroblastoma cells. Nature of the data set: Real-time PCR of somatostatin expression, forskolin-stimulated human neuroblastoma cells. It is filed as cell-based. To be noted: for effect on expression of CRE-dependent endogenous gene somatostatin: FIG. 2, in words; for increase in forskolin-induced expression of somatostatin: real-time PCR, ΔCt above vehicle alone (FIG. 2B). The source says:
FIG. 2B is a bar graph representation depicting results showing that the PDE4 inhibitors rolipram and HT0712 enhance forskolin-induced gene expression in human neuroblastoma cells. Real-time PCR was used to quantify expression of somatostatin, an endogenous cAMP-responsive gene. Expression levels induced by forskolin or by forskolin+drug are quantified as differences in threshold cycle number (ΔCt) above vehicle alone control groups.
A general note: Quantitative PCR measures a nucleic acid by following its amplification.

The test system of data set [3] is CBP^+/− mutant mice. Nature of the data set: Object recognition task, long-term memory in CBP+/− mutant mice. It is filed as in vivo. To be noted: for 24 hour memory retention versus vehicle-alone group: 3.5 minute training (FIG. 6); for memory retention, drug-treated CBP+/− mutants versus drug-treated wildtype mice / 24 hour memory retention (Discrimination Index) versus vehicle-injected mutants: 0.1 mg/kg i.p. 20 minutes before 15 minute training, tested 24 hours later (FIG. 4); for 24 hour memory retention (Discrimination Index) versus vehicle-injected mutants: p<0.05. The source says: (§1) Generation of CBP^+/- mice was described by Oike et al. (Human Molecular Genetics, 8:387-396 (1999)). […] For these studies, animals were generated by crossing CBP^+/- mice to C57BL/6 females (Jackson laboratory). The mice were genotyped with a PCR protocol as described previously (Oike, Y. et al., Human Molecular Genetics, 8:387-396 (1999)). Age-(12 to 14 weeks old by the time of handling) and gender-matched mutant mice and wildtype littermates were used for all experiments. Mice were handled for 3-5 minutes for 5 days. […] The first set was used for experiments summarized in FIGS. 3 and 4 (n=10 per genotype). The second set was used for the experiment summarized in FIG. 5 (wildtype mice, n=20). For each experiment, the same set of animals was used repeatedly with different (new) sets of objects for each repetition. […] (iii) each experimental condition was replicated 2-4 independent times, and replicate days were added to generate final number of subjects. Five-to-eight sessions were performed on each set of mice. Each mouse was trained and tested no more than once per week and with a one-week interval between testing. In experiments with drug-injections (see below), vehicle-injected mice and high/low-dose-injected mice, were counterbalanced. In each experiment, the experimenter was unaware (blind) to the treatment of the subjects during training and testing. […] Mice were presented with two objects, one of which was used during training, and thus was 'familiar' and the other of which was novel (e.g. a small pyramid-shape object). The test objects were divided into ten sets of two “training” plus on “testing” objects, and a new set of objects was used for each training session. After each experimental subject, the apparatus and the objects were cleaned with 90% ethanol, dried and ventilated for a few minutes. […] In addition, vehicle- and drug-injected mice were counterbalanced from experiment to experiment. Such design allowed at least two weeks wash-out time between repeated usages of high doses. […] The experiments were videotaped via an overhead video camera system. Types were reviewed by a blinded observer and the following behavioral parameters were determined: time of exploration of an each object; the total time of exploration of the objects; number of approaches to the objects; and time (latency) to first approach to an object. The discrimination index was determined as described previously (Ennaceur, A. & Aggleton, J. P., Behav. Brain Res., 88:181-193 (1997)). The data were analyzed by Student's unpaired t test using statistical software package ([…] Institute, Inc). All values in the text and figure legends are expressed as mean±SEM.

Data set [4] has as its system wildtype mice. Kind of data set: Object recognition task, long-term memory in wildtype mice. It is filed as in vivo. To be noted: for 24 hour memory retention versus vehicle-alone group: 3.5 minute training (FIG. 6).
Excerpt: as §1

A short description of data set [5]: Half-life (wash-out consideration). As to conditions: mouse, in vivo. As to the method:
HT0712 was administered intraperitoneally (i.p.) at doses: 0.001 mg/kg; 0.005 mg/kg; 0.01 mg/kg; 0.05 mg/kg; 0.1 mg/kg, 0.15 mg/kg and 0.2 mg/kg. Rolipram (Sigma) was administered i.p. at dose 0.1 mg/kg. Drug compounds were injected with one week interval to allow sufficient wash-out time (the half-life for HT0712 and Rolipram <3 hours). In addition, vehicle- and drug-injected mice were counterbalanced from experiment to experiment. Such design allowed at least two weeks wash-out time between repeated usages of high doses.

Data set [6] deals with normal, young adult mice. To be noted: delivered directly to the hippocampus, intraventricularly or intraperitoneally (Scott et al. 2002); cited from earlier work.
Data set [7] deals with aged rats. As to conditions: Barad et al. 1998; cited from earlier work.
[8] abbreviates: i.p., 3.5 minute training, 24-hour memory (FIG. 6).

On to `COc1ccc([C@H]2CNC(=O)[C@H](Cc3cccc(C)c3)C2)cc1OC1CCCC1` [HT0712, (3S,5S)-5-(3-cyclopentyloxy-4-methoxy-phenyl)-3-(3-methyl-benzyl)-piperidin-2-one], for which, in data set [1], the “effect on CRE-luciferase expression” value is given as “robust effects”. Moreover, the “increase of forskolin-induced CRE-luciferase expression above forskolin alone” value in data set [1] is reported as 1.9 fold. For the same compound, the “effect on expression of CRE-dependent endogenous gene somatostatin” value in data set [2] is “robust effects”. Also, the “increase in forskolin-induced expression of somatostatin” value in data set [2] is 4.6 fold. For the same compound, the “24 hour memory retention versus vehicle-alone group” value was “did not; also recorded: failed to enhance memory” in data set [3] (0.05 mg/kg i.p., p=0.79); “higher” in data set [3] (0.10 mg/kg i.p., p<0.0001); “higher” in data set [3] (0.15 mg/kg i.p., p<0.0001); “higher” in data set [3] (0.2 mg/kg i.p., p<0.0001); “significant enhancement; also recorded: higher” in data set [4] (0.05 mg/kg i.p., p<0.005); “higher” in data set [4] (0.10 mg/kg i.p., p<0.0001). Moreover, the “24 hour memory retention versus vehicle-alone group” value is listed as “higher” in data set [4] (0.15 mg/kg i.p., p<0.005) and “higher” in data set [4] (0.2 mg/kg i.p., p<0.005). The “memory retention, drug-treated CBP+/− mutants versus drug-treated wildtype mice” value in data set [3] is on record as “did not differ significantly”. Also, the “24 hour memory retention (Discrimination Index) versus vehicle-injected mutants” value in data set [3] is given as “restored 24-hour memory; also recorded: significantly higher”. Also, the “dose at which memory enhancement was first seen (initial effective dose)” value in data set [3] (setting [8]) turned out to be 0.10 mg/kg. The figures for the peak effective dose in data set [3] (setting [8]) and in data set [4] (setting [8]) were 0.15 mg/kg and 0.10 mg/kg, respectively. In addition, the “24 hour memory retention versus vehicle alone” value in data set [4] (0.05 mg/kg i.p. 20 min before 3.5 minute training (FIG. 5), p<0.05) is recorded as “significantly increased; also recorded: significantly higher”; in data set [4] (0.10 mg/kg i.p. 20 min before 3.5 minute training (FIG. 5), p<0.0001) it was “significantly increased; also recorded: significantly higher”; in data set [4] (0.15 mg/kg i.p. 20 min before 3.5 minute training (FIG. 5), p<0.001), “significantly increased; also recorded: significantly higher”; in data set [4] (0.50 mg/kg i.p., 3.5 minute training (FIG. 5)), “failed to produce any memory enhancement”; in data set [4] (below 0.05 mg/kg i.p., 3.5 minute training (FIG. 5)) it was “failed to produce any memory enhancement”. The compound also yielded a half-life in data set [5] of less than 3 h. Also, in data set [6], the “long-term memory formation after contextual fear conditioning” value is “enhanced”.
As to `COc1ccc(C2CNC(=O)C2)cc1OC1CCCC1` (stereo not drawn) [rolipram, reference compound], in data set [1], the “effect on CRE-luciferase expression” value is “robust effects” and the “increase of forskolin-induced CRE-luciferase expression above forskolin alone” value is recorded as 1.9 fold. Also, in data set [2], the “effect on expression of CRE-dependent endogenous gene somatostatin” value is given as “robust effects” and the “increase in forskolin-induced expression of somatostatin” value is listed as 2.3 fold. Also, in data set [3], the “memory retention, drug-treated CBP+/− mutants versus drug-treated wildtype mice” value is listed as “did not differ significantly” and the “24 hour memory retention (Discrimination Index) versus vehicle-injected mutants” value was “restored 24-hour memory; also recorded: significantly higher”. In data set [5], this compound displayed a half-life of less than 3 h. Also, the “long-term memory formation after contextual fear conditioning” value in data set [6] is “enhanced”. Besides, the “age-dependent loss of hippocampal-dependent memory and cellular long-term potentiation” value in data set [7] was “ameliorates”.
